Assay results as given in US20110295037A1, “PROCESSES FOR PREPARING CINACALCET HYDROCHLORIDE AND POLYMORPHIC FORMS THEREOF” (MEDICHEM, S.A., priority 2006, published 2011).

Experiment: Particle size distribution (Malvern Mastersizer S, by volume)
Type: physicochemical
Conditions: hydrochloride
Method: VI. Particle Size Distribution Method
The particle size for cinacalcet hydrochloride was measured using a Malvern Mastersizer S particle size analyzer with an MS1 Small Volume Sample Dispersion Unit stirred cell. A 300RF mm lens and a beam length of 2.4 mm were used. Samples for analysis were prepared by dispersing a weighed amount of cinacalcet hydrochloride (approximately 60 mg) in 20 mL of sample dispersant, previously prepared by dilution of 1.5 g of Soybean Lecithin to 200 mL with Isopar G. The suspension was delivered drop-wise to a background corrected measuring cell previously filled with dispersant (Isopar G) until the obscuration reached the desired level. Volume distributions were obtained for three times. After completing the measurements, the sample cell was emptied and cleaned, refilled with suspending medium, and the sampling procedure repeated again. For characterization, the values of D10, D50 and D90 (by volume) were specifically listed, each one being the mean of the nine values available for each characterization parameter.

particle size distribution D90 (v) (after milling): 24 μm
particle size distribution D90 (v) (after recrystallization from heptane-isobutylacetate): 263 μm
particle size distribution D90 (v) (after recrystallization from isobutylacetate): 47 μm
Structure (SMILES): C[C@@H](NCCCc1cccc(C(F)(F)F)c1)c1cccc2ccccc12.Cl [cinacalcet hydrochloride, N-[1-(R)-(−)-(1-naphthyl)ethyl]-3-[3-(trifluoromethyl)phenyl]-1-aminopropane hydrochloride]
